Among the data in patent EP3828160A1, “TREPROSTINIL DERIVATIVE COMPOUNDS AND METHODS OF USING SAME” (Corsair Pharma, Inc., priority 2014, dated 2016) are half-life, absolute oral bioavailability and systemic half life values, retold here.

Data set [1] is described as follows: Human plasma stability assay (Test 2). The note with it: 0.5 uM test compound, 37°C, up to 120 minutes, heparinated human plasma, read-out: Test 2 T1/2. Type of data set: in vitro ADME. The procedure:
(§1) Four assays on compounds were carried out by the following methods with the results shown in Table I. • (Test 1) Human liver microsomal stability assay was conducted by incubating 0.5 uM test compounds at 37°C for up to 45 minutes in 50 mM of potassium phosphate buffer (pH 7.4) containing 0.5 mg of microsomal protein and 50 µL of NADPH generating system (7.8 mg of glucose 6-phosphate, 1.7 mg of NADPH and 6 U of glucose 6-phosphate dehydrogenase per mL in 2% w/v of sodium bicarbonate). At 0, 5, 15, 30 and 45 min., an aliquot was taken, quenched with internal standard containing stop solution. No co-factor controls at 45 minutes were also prepared. After incubation, the samples were analyzed by LC-MS/MS. Peak area ratios of analyte to internal standard were used to calculate the intrinsic clearance. The intrinsic clearance (CLint) was determined from the first order elimination constant by non-linear regression. Formation of the active drug Compound A over the time course was also monitored by LC-MS/MS analysis. • (Test 2) Human plasma stability assay was conducted by incubating 0.5 uM test compounds at 37°C for up to 120 minutes in heparinated human plasma. At 0, 5, 15, 30, 60 and 120 […] min., an aliquot was taken, quenched with internal standard containing stop solution. After incubation, the samples were analyzed by LC-MS/MS. Peak area ratios of analyte to internal standard were used to calculate the half-life. Formation of the active drug Compound A over the time course was also monitored by LC-MS/MS analysis. • (Test 3) Human skin homogenate stability assay was conducted in a similar way as the human liver microsomal stability assay, by incubating 0.5 uM test compounds at 37°C for up to 45 minutes in 50 mM of potassium phosphate buffer (pH 7.4) containing 0.5 mg of human skin homogenate protein and 50 µL of NADPH generating system (7.8 mg of glucose 6-phosphate, 1.7 mg of NADPH and 6 U of glucose 6-phosphate dehydrogenase per mL in 2% w/v of sodium bicarbonate). At 0, 5, 15, 30 and 45 min., an aliquot was taken, quenched with internal standard containing stop solution. No co-factor controls at 45 minutes were also prepared. After incubation, the samples were analyzed by LC-MS/MS. Peak area ratios of analyte to internal standard were used to calculate the intrinsic clearance. The intrinsic clearance (CLint) was determined from the first order elimination constant by non-linear regression. Formation of the active drug Compound A over the time course was also monitored by LC-MS/MS analysis. • (Test 4) Human hepatocyte stability assay was conducted by incubating 0.5 uM test compound at 37°C for up to 240 minutes. Cryopreserved human hepatocytes were obtained from Celsis IVT (Baltimore, Maryland). Cells were thawed according to vendor's instructions and were suspended in William's Medium E to 0.5 million cells/mL. Test compounds were spiked into the cell suspension to initiate the reactions. At 0, 10,30,60, 120 and 240 min., an aliquot was taken, quenched with internal standard containing stop solution. After incubation, the samples were analyzed by LC-MS/MS. Peak area ratios of analyte to internal standard were used to calculate the intrinsic clearance. The intrinsic clearance (CLint) was determined from the first order elimination constant by non-linear regression. Formation of the active drug Compound A over the time course was also monitored by LC-MS/MS analysis.

Data set [2] in a line: Human hepatocyte stability assay (Test 4). The class given is in vitro ADME. Particulars: cryopreserved hepatocytes, 0.5 uM test compound, 37°C, up to 240 minutes, 0.5 million cells/mL in William's Medium E, read-out: Test 4 T1/2. The procedure: as §1
A short description of data set [3]: Human liver microsomal stability assay (Test 1). The class given is in vitro ADME. Particulars: liver microsomes, 0.5 uM test compound, 37°C, up to 45 minutes, 0.5 mg microsomal protein, NADPH generating system, pH 7.4, read-out: Test 1 T1/2. Here is the method:
as §1
In general terms: Microsomes from liver hold many membrane-bound enzymes, among them those of drug oxidation.

Data set [4] in a line: Human skin homogenate stability assay (Test 3). Type of data set: in vitro ADME. The note with it: 0.5 uM test compound, 37°C, up to 45 minutes, 0.5 mg human skin homogenate protein, NADPH generating system, pH 7.4, read-out: Test 3 T1/2. The procedure:
as §1

The conditions of data set [5]: treprostinil as the free acid, cited from earlier work.

Each structure is given as a SMILES string.

For `CCCCCC(O)CCC1C(O)CC2Cc3c(cccc3OCC(=O)NCC3CC3)CC21` (stereo not drawn) [Compound 2, N-Cyclopropylmethyl-2-[2-hydroxy-1-(3-hydroxy-octyl)-2,3,3a,4,9,9a-hexahydro-1H-cyclopenta[b]naphthalen-5-yloxy]-acetamide], the half-life at 0.5 uM in data set [1] was more than 60 min; in data set [2], 31 to 60 min; in data set [3], less than 15 min.

On to `CCCCCC(O)CCC1C(O)CC2Cc3c(cccc3OCC(=O)NCCO)CC21` (stereo not drawn) [Compound 7, N-(2-Hydroxy-ethyl)-2-[2-hydroxy-1-(3-hydroxy-octyl)-2,3,3a,4,9,9a-hexahydro-1H-cyclopenta[b]naphthalen-5-yloxy]-acetamide], for which the half-life at 0.5 uM was more than 60 min in data set [1], 15 to 30 min in data set [2] and 15 to 30 min in data set [3].

Take `CCCCCC(O)CCC1C(O)CC2Cc3c(cccc3OCC(=O)N(C)CC(=O)OC)CC21` (stereo not drawn) [Compound 13, ({2-[2-Hydroxy-1-(3-hydroxy-octyl)-2,3,3a,4,9,9a-hexahydro-1H-cyclopenta[b]naphthalen-5-yloxy]-acetyl}-methyl-amino)-acetic acid methyl ester]: the half-life at 0.5 uM was more than 60 min in data set [1], less than 15 min in data set [2] and less than 15 min in data set [3].

Turning to `CCCCCC(O)CCC1C(O)CC2Cc3c(cccc3OCC(=O)NCC(F)(F)F)CC21` (stereo not drawn) [Compound 14, 2-[2-Hydroxy-1-(3-hydroxy-octyl)-2,3,3a,4,9,9a-hexahydro-1H-cyclopenta[b]naphthalen-5-yloxy]-N-(2,2,2-trifluoro-ethyl)-acetamide], the half-life at 0.5 uM was more than 60 min in data set [1], less than 15 min in data set [2], more than 60 min in data set [4] and less than 15 min in data set [3].

As for `CCCCCC(O)CCC1C(O)CC2Cc3c(cccc3OCC(=O)OC(C)C)CC21` (stereo not drawn) [Compound 20, [2-Hydroxy-1-(3-hydroxy-octyl)-2,3,3a,4,9,9a-hexahydro-1H-cyclopenta[b]naphthalen-5-yloxy]-acetic acid isopropyl ester], the values for the half-life at 0.5 uM in data set [1], in data set [4] and in data set [3] were 31 to 60 min, less than 15 min and less than 15 min, respectively.

As for `CCCCCC(O)CCC1C(OC(=O)CCCC)CC2Cc3c(cccc3OCC(=O)OC)CC21` (stereo not drawn) [Compound 22, Pentanoic acid 1-(3-hydroxy-octyl)-5-methoxycarbonylmethoxy-2,3,3a,4,9,9a-hexahydro-1H-cyclopenta[b]naphthalen-2-yl ester], the half-life at 0.5 uM in data set [1] was more than 60 min; in data set [4], more than 60 min; in data set [3], less than 15 min.

Take `CCCCCC(O)CCC1C(OC(=O)OCC)CC2Cc3c(cccc3OCC(=O)OC)CC21` (stereo not drawn) [Compound 25, [2-Ethoxycarbonyloxy-1-(3-hydroxy-octyl)-2,3,3a,4,9,9a-hexahydro-1H-cyclopenta[b]naphthalen-5-yloxy]-acetic acid methyl ester]: the figures for the half-life at 0.5 uM in data set [1], in data set [4] and in data set [3] were more than 60 min, 31 to 60 min and less than 15 min, respectively.

Turning to `CCCCC[C@H](O)CC[C@@H]1[C@H]2Cc3cccc4c3C[C@H]2C[C@H]1OC(=O)CO4` [Compound 57, Treprostinil 2-hydroxy lactone], the half-life at 0.5 uM in data set [1], in data set [2] and in data set [3] was more than 60 min each time.

Consider `CCCCC[C@H](O)CC[C@@H]1[C@H]2Cc3cccc(OCC(=O)O)c3C[C@H]2C[C@H]1O` [treprostinil], for which, in data set [5] (oral), the absolute oral bioavailability result was “less than 10%”. The systemic half life result in data set [5] (due to significant metabolism) is recorded as “very short”.
